This note sets out measurements from patent US7655629B2, “Peptides and their use for the treatment of HIV infections” (priority 2002, dated 2010).

Structures are written as SMILES. Like-named read-outs stand apart in the source and are kept apart here. Positions of bridges follow the written chain, without caps; N, C: chain ends. Non-standard residues stand in square brackets, D forms with d. Residues, ends and D or L forms follow the SMILES beside them. dTic = O=C(O)[C@H]1Cc2ccccc2CN1

For data set [1] the following is noted: dog, plasma.
Description: (§2) Plasma was spiked resulting in concentrations of 40 μg/ml and stored at 37° C. At time points 0, 15, 30, 45, 60, 120, 180, 240 and 300 min samples of 20 μl were taken. The plasma was immediately mixed for precipitation with the two-fold volume of acetonitrile containing 0.15% (w/v) n-nonyl-β-D-glucopyranoside. Following centrifugation the supernatants were mixed with the two-fold volume of 0.1% (v/v) trifluroacetic acid. Twenty μl of these solutions were analyzed by LC-MS. Chromatography was performed using a gradient with the following eluents: eluent A: water containing 0.06% trifluroacetic acid (v/v), eluent B: acetonitrile/water 80:20 (v/v; with 0.05% trifluoroacetic acid; v/v). A C18 precolumn was used in combination with a C18 separation column (300 Å, 5 μm, 150×1 mm inner diameter) at a flow rate of 30 μl/min. HPLC eluates were ionized by the electrospray technique of a LCQ classic mass spectrometer. Areas of the detected peaks of the peptides of the present invention were measured and used for quantification by external calibration. The calibration curve was linear over a range from 0.5 μg/ml to 250 μg/ml plasma. Half life—defined as the period for a concentration decrease to 50% of the initial concentration—was calculated from the slope of an extrapolated curve plotting the relative peptide concentration at a given time point (logarithm scale) against the incubation time. These experiments allowed the quantitative analysis of peptide concentration in plasma.
For data set [2] the following is noted: cynomolgus monkey, plasma.
Description: as §2
For another data set, the system named is X4-tropic HIV-1 NL4-3. Conditions: read-out: IC50 NL4-3; P4-CCR5 cells, HIV-1 NL4-3, peptide 2 h before infection, readout three days after infection. In a few lines: (§1)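 P4-CCR5 cells (CD4, CCR5, CXCR4, HIV-1 promoter-driven β-galactosidase) pretreated 2 h with peptide, then infected with virus containing 1 ng p24 antigen and incubated overnight. Cells washed and cultured without peptide; three days post-infection infectivity read by chemiluminescent β-galactosidase assay, in quintuplicate.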

The subject of the next data set is HIV-1 NL4-3 DTV. The following applies: read-out: IC50 DTV, P4-CCR5 cells, peptide 2 h before infection, readout three days after infection. In short, it runs like this: as §1
For data set [3] the following is noted: human, plasma.
Description: as §2
The conditions of data set [4]: rat, plasma.
Description: as §2

On to `CC[C@H](C)[C@H](NC(=O)[C@H](C)NC(=O)[C@H](CCC(=O)O)NC(=O)[C@@H](N)CC(C)C)C(=O)N1CCC[C@H]1C(=O)N[C@@H](CCSC)C(=O)N[C@H]1CSSC[C@@H](C(=O)N[C@@H](Cc2ccccc2)C(=O)N[C@@H](Cc2ccccc2)C(=O)N[C@@H](CC(N)=O)C(=O)N[C@@H](CCCCN)C(=O)N2CCC[C@H]2C(=O)N[C@@H](Cc2ccccc2)C(=O)N[C@H](C(=O)N[C@@H](Cc2ccccc2)C(=O)O)C(C)C)NC(=O)[C@H](CCC(=O)O)NC(=O)[C@@H]2CCCN2C(=O)[C@@H]2CCCN2C(=O)[C@H]([C@@H](C)CC)NC1=O` [VIR-273] (H-LEAIPMCIPPECFFNKPFVF-OH; disulfide 7-12), for which the half-life (as a rule, the time needed for the level to fall by half in the phase considered) in data set [1] was 12.4 h; in data set [2], 3.6 h; in data set [3] it was 4.2 h; in data set [4] it was 0.1 h. For the same compound, the results for the IC50 with X4-tropic HIV-1 NL4-3 and with HIV-1 NL4-3 DTV were 332 nM and 1100 nM, respectively.

Take `CC[C@H](C)[C@H](NC(=O)[C@H](C)NC(=O)[C@H](CCC(=O)O)NC(=O)[C@@H](N)CC(C)C)C(=O)N1CCC[C@H]1C(=O)N[C@@H](CCSC)C(=O)N[C@H]1CSSC[C@@H](C(=O)N[C@@H](CC(C)C)C(=O)N[C@@H](Cc2ccccc2)C(=O)NCC(=O)N[C@@H](CCCCN)C(=O)N2CCC[C@H]2C(=O)N[C@@H](Cc2ccccc2)C(=O)N[C@H](C(=O)N[C@@H](Cc2ccccc2)C(=O)O)C(C)C)NC(=O)[C@H](CCC(=O)O)NC(=O)[C@@H]2CCCN2C(=O)[C@@H]2CCCN2C(=O)[C@H]([C@@H](C)CC)NC1=O` [VIR-274] (H-LEAIPMCIPPECLFGKPFVF-OH; disulfide 7-12): the half-life in data set [1] was 9.5 h; in data set [2], 2.8 h; in data set [3] it was 2 h; in data set [4] it was 0.1 h. The IC50 (commonly the concentration that inhibits the measured activity by half) with X4-tropic HIV-1 NL4-3 is 576 nM; in the data set on HIV-1 NL4-3 DTV, 1420 nM.

Take `CC[C@H](C)[C@H](NC(=O)[C@H](C)NC(=O)[C@H](CCC(=O)O)NC(=O)[C@@H](N)CC(C)C)C(=O)N1CCC[C@H]1C(=O)N[C@H]1CSSC[C@@H](C(=O)N[C@H](C(=O)N[C@@H](Cc2ccccc2)C(=O)N[C@@H](Cc2ccccc2)C(=O)NCC(=O)N[C@@H](CCCCN)C(=O)N2CCC[C@H]2C(=O)N[C@@H](Cc2ccccc2)C(=O)N[C@H](C(=O)N[C@@H](Cc2ccccc2)C(=O)O)C(C)C)C(C)C)NC(=O)[C@@H]2CCCN2C(=O)[C@@H]2CCCN2C(=O)[C@H]([C@@H](C)CC)NC(=O)[C@H](CO)NC1=O` [VIR-344] (H-LEAIPCSIPPCVFFGKPFVF-OH; disulfide 6-11): the half-life in data set [1] was 6.6 h; in data set [2], 10.5 h; in data set [3], 7 h; in data set [4], 0.1 h. The values for the IC50 with X4-tropic HIV-1 NL4-3 and in the data set with HIV-1 NL4-3 DTV were 348 nM and 448 nM, respectively.

Turning to `CC[C@H](C)[C@H](NC(=O)[C@H](C)NC(=O)[C@H](CCC(=O)O)NC(=O)[C@@H](N)CC(C)C)C(=O)N1CCC[C@H]1C(=O)N[C@H]1CSSC[C@@H](C(=O)N[C@@H](Cc2ccccc2)C(=O)N[C@@H](CC(C)C)C(=O)N[C@@H](Cc2ccccc2)C(=O)NCC(=O)N[C@@H](CCCCN)C(=O)N2CCC[C@H]2C(=O)N[C@@H](Cc2ccccc2)C(=O)N[C@H](C(=O)N[C@@H](Cc2ccccc2)C(=O)O)C(C)C)NC(=O)[C@@H]2CCCN2C(=O)[C@@H]2CCCN2C(=O)[C@H]([C@@H](C)CC)NC(=O)[C@H](CO)NC1=O` [VIR-345] (H-LEAIPCSIPPCFLFGKPFVF-OH; disulfide 6-11), the half-life in data set [1] is 10.7 h; in data set [2], 5.1 h; in data set [3], 5.6 h; in data set [4] it was 0.1 h. Besides, the values for the IC50 in the data set on X4-tropic HIV-1 NL4-3 and in the data set with HIV-1 NL4-3 DTV were 298 nM and 376 nM, respectively.

Turning to `CC[C@H](C)[C@H](NC(=O)[C@H](C)NC(=O)[C@H](CCC(=O)O)NC(=O)[C@@H](N)CC(C)C)C(=O)N1CCC[C@H]1C(=O)N[C@H]1CSSC[C@@H](C(=O)N[C@H](C(=O)NCC(=O)N[C@@H](Cc2ccccc2)C(=O)NCC(=O)N[C@@H](CCCCN)C(=O)N2CCC[C@H]2C(=O)N[C@@H](Cc2ccccc2)C(=O)N[C@H](C(=O)N[C@@H](Cc2ccccc2)C(=O)O)C(C)C)C(C)C)NC(=O)[C@H]2CCCN2C(=O)[C@@H]2CCCN2C(=O)[C@H]([C@@H](C)CC)NC(=O)[C@H](CO)NC1=O` [VIR-348, LEAIPCSIPpCVGFGKPFVF] (H-LEAIPCSIP[dP]CVGFGKPFVF-OH; disulfide 6-11), the half-life in data set [1] is 9.3 h; in data set [2] it was 3 h; in data set [3], 3.3 h; in data set [4] it was 0.2 h. Also, the IC50 was 326 nM with X4-tropic HIV-1 NL4-3 and 541 nM with HIV-1 NL4-3 DTV.

Consider `CC[C@H](C)[C@H](NC(=O)[C@H](C)NC(=O)[C@H](CCC(=O)O)NC(=O)[C@@H](N)CC(C)C)C(=O)N1CCC[C@H]1C(=O)N[C@H]1CSSC[C@@H](C(=O)N[C@H](C(=O)N[C@@H](Cc2ccccc2)C(=O)N[C@@H](Cc2ccccc2)C(=O)N[C@@H](CC(N)=O)C(=O)N[C@@H](CCCCN)C(=O)N2CCC[C@H]2C(=O)N[C@@H](Cc2ccccc2)C(=O)N[C@H](C(=O)N[C@@H](Cc2ccccc2)C(=O)O)C(C)C)C(C)C)NC(=O)[C@H]2CCCN2C(=O)[C@@H]2CCCN2C(=O)[C@H]([C@@H](C)CC)NC(=O)[C@H](CO)NC1=O` [VIR-352, LEAIPCSIPpCVFFNKPFVF] (H-LEAIPCSIP[dP]CVFFNKPFVF-OH; disulfide 6-11), for which the half-life in data set [1] was 23.7 h; in data set [2], 6.4 h; in data set [3], 3.6 h; in data set [4], 0.2 h. The IC50 in the data set on X4-tropic HIV-1 NL4-3 worked out at 340 nM; in the data set on HIV-1 NL4-3 DTV it was 624 nM.

Regarding `CC[C@H](C)[C@H](NC(=O)[C@H](C)NC(=O)[C@H](CCC(=O)O)NC(=O)[C@@H](N)CC(C)C)C(=O)N1CCC[C@H]1C(=O)N[C@H]1CSSC[C@@H](C(=O)N[C@@H](Cc2ccccc2)C(=O)N[C@@H](CC(C)C)C(=O)N[C@@H](Cc2ccccc2)C(=O)N[C@@H](CC(N)=O)C(=O)N[C@@H](CCCCN)C(=O)N2CCC[C@H]2C(=O)N[C@@H](Cc2ccccc2)C(=O)N[C@H](C(=O)N[C@@H](Cc2ccccc2)C(=O)O)C(C)C)NC(=O)[C@H]2CCCN2C(=O)[C@@H]2CCCN2C(=O)[C@H]([C@@H](C)CC)NC(=O)[C@H](CO)NC1=O` [VIR-353, LEAIPCSIPpCFLFNKPFVF] (H-LEAIPCSIP[dP]CFLFNKPFVF-OH; disulfide 6-11), the half-life was 15.2 h in data set [1], 5 h in data set [2], 4 h in data set [3] and 0.2 h in data set [4]. Further, the results for the IC50 in the data set on X4-tropic HIV-1 NL4-3 and in the data set with HIV-1 NL4-3 DTV were 225 nM and 181 nM, respectively.

Take `CC[C@H](C)[C@H](NC(=O)[C@H](CC(=O)O)NC(=O)[C@H](CCC(=O)O)NC(=O)[C@@H](N)CC(C)C)C(=O)N1CCC[C@H]1C(=O)N[C@H]1CSSC[C@@H](C(=O)N[C@H](C(=O)N[C@@H](C)C(=O)N[C@@H](Cc2ccccc2)C(=O)N[C@@H](CC(N)=O)C(=O)N[C@@H](CCCCN)C(=O)N2CCC[C@H]2C(=O)N[C@@H](Cc2ccccc2)C(=O)N[C@H](C(=O)N[C@@H](Cc2ccccc2)C(=O)O)C(C)C)C(C)C)NC(=O)[C@H]2CCCN2C(=O)[C@@H]2CCCN2C(=O)[C@H]([C@@H](C)CC)NC(=O)[C@H](CO)NC1=O` [VIR-357, LEDIPCSIPpCVAFNKPFVF] (H-LEDIPCSIP[dP]CVAFNKPFVF-OH; disulfide 6-11): the half-life in data set [1] was 71.5 h; in data set [2] it was 13.2 h; in data set [3] it was 23.3 h; in data set [4], 0.6 h. Besides, the figures for the IC50 with X4-tropic HIV-1 NL4-3 and with HIV-1 NL4-3 DTV were 497 nM and 704 nM, respectively.

On to `CC[C@H](C)[C@H](NC(=O)[C@H](CCCCN)NC(=O)[C@H](CCC(=O)O)NC(=O)[C@@H](N)CC(C)C)C(=O)N1CCC[C@H]1C(=O)N[C@H]1CSSC[C@@H](C(=O)N[C@H](C(=O)N[C@@H](C)C(=O)N[C@@H](Cc2ccccc2)C(=O)N[C@@H](CC(N)=O)C(=O)N[C@@H](CCCCN)C(=O)N2CCC[C@H]2C(=O)N[C@@H](Cc2ccccc2)C(=O)N[C@H](C(=O)N[C@@H](Cc2ccccc2)C(=O)O)C(C)C)C(C)C)NC(=O)[C@H]2CCCN2C(=O)[C@@H]2CCCN2C(=O)[C@H]([C@@H](C)CC)NC(=O)[C@H](CO)NC1=O` [VIR-358, LEKIPCSIPpCVAFNKPFVF] (H-LEKIPCSIP[dP]CVAFNKPFVF-OH; disulfide 6-11), for which the half-life is 16 h in data set [1], 4.7 h in data set [2], 5.9 h in data set [3] and 0.4 h in data set [4]. Also, the concentration for half-maximal inhibition (IC50) came to 706 nM with X4-tropic HIV-1 NL4-3 and 944 nM in the data set with HIV-1 NL4-3 DTV.

As to `CC[C@H](C)[C@H](NC(=O)[C@H](C)NC(=O)[C@H](CCC(=O)O)NC(=O)[C@@H](N)CC(C)C)C(=O)N1CCC[C@H]1C(=O)N[C@@H](CCSC)C(=O)NCC(=O)N[C@H](C(=O)N1CCC[C@H]1C(=O)N1CCC[C@@H]1C(=O)N[C@@H](CCC(=O)O)C(=O)N[C@H](C(=O)N1Cc2ccccc2C[C@@H]1C(=O)N[C@@H](Cc1ccccc1)C(=O)N[C@@H](CC(N)=O)C(=O)N[C@@H](CCCCN)C(=O)N1CCC[C@H]1C(=O)N[C@@H](Cc1ccccc1)C(=O)N[C@H](C(=O)N[C@@H](Cc1ccccc1)C(=O)O)C(C)C)C(C)C)[C@@H](C)CC` [VIR-448, LEAIPMGIPpEV(D-Tic)FNKPFVF] (H-LEAIPMGIP[dP]EV[dTic]FNKPFVF-OH), the half-life was 18 h in data set [1], 4.5 h in data set [2], 3.1 h in data set [3] and 0.2 h in data set [4]. Besides, the IC50 in the data set on X4-tropic HIV-1 NL4-3 was determined as 318 nM; in the data set on HIV-1 NL4-3 DTV, 325 nM.
